Data reported in publication PMC12040169 (PLOS Biology, 2025).

Assay: in vitro
Conditions: human, hela cells, % viability

Row | SMILES | viability at 28.5 h, 10 µM
1 | Cc1csc(Sc2nccnc2NC(C)C)n1 [CBK115203] | 88.8%
2 | CC(C)Nc1nccnc1Sc1nc[nH]n1 [CBK115205] | 97.5%
3 | Cc1nnc(Sc2ncccc2C(F)(F)F)s1 [CBK115211] | 87.7%
4 | FC(F)(F)c1cccnc1Sc1nc[nH]n1 [CBK115213] | 102%
5 | Cc1nnc(Sc2cc(C(F)(F)F)ccn2)s1 [CBK115215] | 87.6%
6 | c1csc(Sc2nc3ccccc3nc2N2CCCC2)c1 [CBK115225] | 94.3%
7 | Fc1ccc(Sc2ccc(C(F)(F)F)cn2)cc1 [CBK115235] | 106%
8 | FC(F)(F)c1ccc(Sc2cccs2)nc1 [CBK115236] | 92.5%
9 | Cc1ccccc1Sc1ccc(C(F)(F)F)cn1 [CBK115237] | 112%
10 | Nc1cccc(Sc2cccc(C(F)(F)F)n2)c1 [CBK115239] | 99.3%
11 | Fc1ccc(Sc2cccc(C(F)(F)F)n2)cc1 [CBK115240] | 97.5%
12 | Cc1ccccc1Sc1cccc(C(F)(F)F)n1 [CBK115243] | 103%
13 | FC(F)(F)c1ccnc(Sc2cccs2)n1 [CBK115245] | 87.7%
14 | COc1ccc(Sc2nccnc2NC(C)C)cc1OC [CBK115249] | 87.4%
15 | COCc1nnc(Sc2nc3ccccc3nc2NC(C)C)s1 [CBK115253] | 96.5%
16 | c1ccc2nc(N3CCCC3)c(Sc3nc[nH]n3)nc2c1 [CBK115265] | 90.9%
17 | CC(C)Nc1nccnc1OC1CCNC1 (stereo not drawn) [CBK115279] | 92.5%
18 | CC(C)Nc1nc2cc(Cl)c(Cl)cc2nc1OCCCN(C)C [CBK115282] | 93.1%
19 | c1cnc(N2CCCC2)c(OC2CCCNC2)n1 (stereo not drawn) [CBK115283] | 90.2%
20 | CCOC(=O)Cn1c(C)nc2ccccc21 [CBK115311] | 103%
21 | CC1(C(F)(F)F)OC(NC2C3CC4CC(C3)CC2C4)=NC1=O (stereo not drawn) [CBK115312] | 114%
22 | O=c1c([N+](=O)[O-])c(O)c2ccccc2n1-c1ccccc1 [CBK115316] | 97.5%
23 | COc1ccccc1-n1c(C)c(C(C)=O)c2cc(O)ccc21 [CBK115320] | 86.3%
24 | COC(=O)c1nn(-c2ccccc2)c2cc([N+](=O)[O-])ccc12 [CBK115321] | 99.3%
25 | Cc1cc(O)c(C(C)C)cc1N1C(=O)c2ccc([N+](=O)[O-])cc2C1=O [CBK115323] | 97.7%

Row | SMILES | viability at 28.5 h, 10 µM
26 | Cn1c(CNc2ccccc2[N+](=O)[O-])c(C#N)c2ccccc21 [CBK115324] | 98.1%
27 | Cc1ccc(-n2c(C)c([N+](=O)[O-])c3ccc(O)c(CN(C)C)c32)cc1 [CBK115328] | 88.8%
28 | Cc1cc(O)nc2sc(C(=O)c3ccccc3)c(N)c12 [CBK115334] | 87.9%
29 | Cc1cc(C)c2c(N)c(C(=O)C(C)(C)C)sc2n1 [CBK115341] | 81.3%
30 | Cc1ccc2c(N)c(C(=O)Nc3ccc(C#N)cc3)sc2n1 [CBK115348] | 91.3%
31 | COc1ccc2c(c1)/C(=C/c1cnc[nH]1)C(=O)N2 [CBK115354] | 72.5%
32 | CC(C)NC(=O)/C(=C/c1c[nH]c2ncccc12)c1ccccc1 [CBK115357] | 95.8%
33 | CCN(CC)C(=O)c1sc2nc(-c3cccs3)nc(C)c2c1N [CBK115366] | 100%
34 | CC(=O)c1sc2nc(-c3ccccc3)nc(C)c2c1N [CBK115368] | 90.5%
35 | Cc1ccc2c(N)c(C(=O)c3cccs3)sc2n1 [CBK115369] | 92.5%
36 | COc1ccc(Cn2c(C)nc3c([N+](=O)[O-])c(C)c(C)cc32)cc1 [CBK115370] | 102%
37 | CCOC(=O)c1sc2nccc(N(C)C)c2c1-n1cccc1 [CBK115381] | 93.4%
38 | COC(=O)c1ccccc1N1C(=O)c2cccc([N+](=O)[O-])c2C1=O [CBK115382] | 95.7%
39 | O=C1Nc2ccccc2/C1=C/c1c[nH]cn1 [CBK115386] | 92.8%
40 | COC[C@H]1CCCN1C(=O)Cn1[nH]c(C)c(Cc2c(Cl)cccc2Cl)c1=O [CBK115407] | 103%
41 | COc1ccc2c(c1)nc1n2CCC1O (stereo not drawn) [CBK115449] | 96.9%
42 | COc1cccc(CN2CCCN(c3nccc(OCC4COc5ccccc5O4)n3)CC2)c1OC (stereo not drawn) [CBK115476T] | 108%
43 | CC1(c2[nH]nc(N)c2Cc2c(Cl)cccc2Cl)CC1 [CBK115483T] | 92.3%
44 | Cc1[nH]c(=O)[nH]c(=S)c1C(=O)NCc1ccc(Cl)cc1 [CBK115489] | 106%
45 | Cc1[nH]c(=O)[nH]c(=S)c1C(=O)NCc1cccc(Cl)c1C [CBK115493] | 94.6%
46 | Cc1[nH]c(=O)[nH]c(=S)c1C(=O)Nc1ccc(Cl)cc1C#N [CBK115502] | 91%
47 | Cc1[nH]c(=O)[nH]c(=S)c1C(=O)Nc1ccc(C(F)(F)F)cc1 [CBK115510] | 96.2%
48 | Nc1ncc(-c2ccccc2O)nc1-c1ccc(O)cc1 [CBK115548] | 78.5%
49 | Cc1ccc(C(=O)c2coc3ccc(O)cc23)cc1 [CBK115557] | 89.1%
50 | O=C(O)CSc1ccc(Cl)cc1 [CBK115571] | 88.4%

Row | SMILES | viability at 28.5 h, 10 µM
51 | O=[N+]([O-])c1cccnc1Sc1ccccc1C1=NCCCN1 [CBK115579C] | 96.2%
52 | NCCCOc1cncc(N2CCCC2)n1 [CBK115603] | 96.8%
53 | Nc1ncc(-c2ccsc2)nc1-c1ccc(O)cc1 [CBK115631] | 100%
54 | O=C1N=C(NC2C3CC4CC(C3)CC2C4)OC12CCN(CCC(F)(F)F)CC2 (stereo not drawn) [CBK115640] | 91.4%
55 | CC(C)Nc1nccnc1OCc1ccc(F)cc1 [CBK115644] | 113%
56 | CC(C)Nc1nccnc1OCc1ccsc1 [CBK115646] | 103%
57 | CC(C)Nc1cc(OCc2ccc(F)cc2)ncn1 [CBK115654] | 103%
58 | CC(C)Nc1cc(OCc2ccc(-c3ccccc3)cc2)ncn1 [CBK115658] | 103%
59 | CC(C)Nc1nc2ccccc2nc1OCc1ccsc1 [CBK115660] | 104%
60 | Clc1ccc(OCCOc2cncc(N3CCCC3)n2)cc1 [CBK115668] | 87.4%
61 | c1ccc(NCCOc2cncc(N3CCCC3)n2)cc1 [CBK115670] | 101%
62 | Cc1cc(O)ccc1-c1cncc(-c2ccc(O)cc2C)n1 [CBK115689] | 90.5%
63 | O=C(NCCN1CCOCC1)c1ccc(Nc2cncc(-c3ccc(O)cc3)n2)cc1 [CBK115692] | 77.1%
64 | CCOC(=O)N1CCC(NC(=O)c2ccc(Nc3cncc(-c4ccc(O)cc4)n3)cc2)CC1 [CBK115694] | 107%
65 | CCCc1n[nH]c(C2CC2)c1C(=O)OCC [CBK115714] | 115%
66 | CCCc1n[nH]c(C2CCCC2)c1C(=O)OCC [CBK115727] | 85.1%
67 | CC(C)Nc1nc2ccccc2nc1OCCC#N [CBK115735] | 103%
68 | Cc1ncsc1CCOc1nc2ccccc2nc1NC(C)C [CBK115736] | 102%
69 | COCCCOc1nc2ccccc2nc1NC(C)C [CBK115737] | 99.3%
70 | CC(C)Nc1nc2cc(Cl)c(Cl)cc2nc1OCc1cccnc1 [CBK115743] | 97.4%
71 | Cc1ncsc1CCOc1nccnc1N1CCCC1 [CBK115752] | 86.5%
72 | Oc1cccc(OCCOc2nccnc2N2CCCC2)c1 [CBK115756] | 85.5%
73 | COCCCOc1cncc(N2CCCC2)n1 [CBK115759] | 92.4%
74 | c1cncc(COc2nc3ccccc3nc2N2CCCC2)c1 [CBK115762] | 93.4%
75 | N#CCCOc1nc2ccccc2nc1N1CCCC1 [CBK115763] | 96.2%

Row | SMILES | viability at 28.5 h, 10 µM
76 | Cc1cc(COc2nc3ccccc3nc2N2CCCC2)no1 [CBK115768] | 109%
77 | c1ccc2nc(N3CCCC3)c(OC3CCOC3)nc2c1 (stereo not drawn) [CBK115769] | 99.4%
78 | CSCCOc1nc2ccccc2nc1N1CCCC1 [CBK115770] | 91.3%
79 | COCCCOc1nc2cc(Cl)c(Cl)cc2nc1N1CCCC1 [CBK115773] | 95.9%
80 | Oc1cccc(OCCOc2nc3cc(Cl)c(Cl)cc3nc2N2CCCC2)c1 [CBK115778] | 100%
81 | Cc1ncsc1CCOc1ncccc1C(F)(F)F [CBK115781] | 92.2%
82 | Cc1cc(COc2ncccc2C(F)(F)F)no1 [CBK115783] | 101%
83 | FC(F)(F)c1ccnc(OCc2cccnc2)c1 [CBK115784] | 99.6%
84 | Cc1cc(COc2cc(C(F)(F)F)ccn2)no1 [CBK115787] | 134%
85 | Oc1cccc(OCCOc2cc(C(F)(F)F)ccn2)c1 [CBK115788] | 84.8%
86 | FC(F)(F)c1ccc(OCCCc2ccncc2)nc1 [CBK115791] | 101%
87 | Cc1cc(COc2ccc(C(F)(F)F)cn2)no1 [CBK115792] | 91.7%
88 | Cc1ncsc1CCOc1cccc(C(F)(F)F)n1 [CBK115794] | 117%
89 | Cc1ncsc1CCOc1nccc(C(F)(F)F)n1 [CBK115798] | 80.3%
90 | FC(F)(F)c1ccnc(OCCCc2ccncc2)n1 [CBK115799] | 97.5%
91 | COCCCOc1nc2ccccc2nc1C(F)(F)F [CBK115803] | 101%
92 | FC(F)(F)c1cccnc1OCCNc1ccccc1 [CBK115822] | 98.7%
93 | FC(F)(F)c1ccc(OCc2ccc(-c3ccccc3)cc2)nc1 [CBK115830] | 94.6%
94 | FC(F)(F)c1ccc(OCc2ccc(Cl)c(Cl)c2)nc1 [CBK115831] | 90.2%
95 | O=C1NC2(CCN(C(=O)Cc3ccc(F)cc3)CC2)Oc2ccc(-c3ccccc3)cc21 [CBK115832] | 93.5%
96 | FC(F)(F)c1cccc(OCCOc2ccccc2)n1 [CBK115835] | 87.7%
97 | FC(F)(F)c1ccnc(OCCOc2ccc(Cl)cc2)n1 [CBK115838] | 90.8%
98 | FC(F)(F)c1ccnc(OCCNc2ccccc2)n1 [CBK115839] | 90.8%
99 | FC(F)(F)c1nc2ccccc2nc1OCCc1c[nH]c2ccccc12 [CBK115843] | 93.2%
